Source: US20220018852A1, “METHODS AND KITS FOR DETECTING LIVER DYSFUNCTION IN A SUBJECT” (priority 2018, published 2022)
“And” between values parts separate entries of the source, which are not always exact repeats. Equal entries are not always repeated. Structures can show the parent of a compound that is named as a salt.

Key:
[1] = biological target: T1, albumin of rats (Rattus norvegicus, UniProt P02770); assay: SEB test applied to serum of ethanol-treated rats; assay type: binding; conditions: L-thyroxine at 1/5, Au at 1/50
T1 construct: The SEB test was performed in the serum of all groups of rats; from tissue; host or cells: serum of male Wistar rats (ethanol-treated and control)
T1 sequence (P02770 25-608): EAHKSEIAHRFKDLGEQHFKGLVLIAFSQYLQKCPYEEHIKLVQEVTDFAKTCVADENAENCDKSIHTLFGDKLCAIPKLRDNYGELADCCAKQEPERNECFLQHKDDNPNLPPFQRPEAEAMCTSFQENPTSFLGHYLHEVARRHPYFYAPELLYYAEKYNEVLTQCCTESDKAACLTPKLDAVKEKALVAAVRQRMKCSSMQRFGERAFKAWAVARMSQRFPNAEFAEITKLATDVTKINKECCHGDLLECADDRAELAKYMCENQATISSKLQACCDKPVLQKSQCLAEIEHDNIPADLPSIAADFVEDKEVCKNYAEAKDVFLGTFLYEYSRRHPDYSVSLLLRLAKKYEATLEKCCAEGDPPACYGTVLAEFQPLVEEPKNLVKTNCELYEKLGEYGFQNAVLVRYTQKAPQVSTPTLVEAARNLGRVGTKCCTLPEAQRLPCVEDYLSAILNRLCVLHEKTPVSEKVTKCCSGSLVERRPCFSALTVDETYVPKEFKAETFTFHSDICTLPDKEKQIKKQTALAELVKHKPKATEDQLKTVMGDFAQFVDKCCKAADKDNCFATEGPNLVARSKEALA

[2] = biological target: T2, HSA (Homo sapiens, UniProt P02768); assay: SEB test, development cohort: 45 cirrhotic vs 45 control patients; assay type: binding; conditions: 45 cirrhotic vs 45 controls
T2 sequence (P02768 25-609): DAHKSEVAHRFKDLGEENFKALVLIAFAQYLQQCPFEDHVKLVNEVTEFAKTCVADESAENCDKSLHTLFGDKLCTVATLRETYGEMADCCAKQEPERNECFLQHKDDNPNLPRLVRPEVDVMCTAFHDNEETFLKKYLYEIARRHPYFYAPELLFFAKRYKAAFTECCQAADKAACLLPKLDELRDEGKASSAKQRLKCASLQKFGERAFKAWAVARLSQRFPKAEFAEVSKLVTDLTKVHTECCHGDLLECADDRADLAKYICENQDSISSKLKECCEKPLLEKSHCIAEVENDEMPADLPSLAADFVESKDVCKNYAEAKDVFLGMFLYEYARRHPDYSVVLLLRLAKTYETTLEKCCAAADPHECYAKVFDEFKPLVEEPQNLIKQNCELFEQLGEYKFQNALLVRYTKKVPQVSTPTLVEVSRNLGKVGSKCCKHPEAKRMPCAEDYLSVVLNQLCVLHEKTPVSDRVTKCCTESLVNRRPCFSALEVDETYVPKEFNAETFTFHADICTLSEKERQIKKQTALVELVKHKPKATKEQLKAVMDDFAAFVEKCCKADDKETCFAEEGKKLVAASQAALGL

[3] = biological target: T2, HSA; assay: Enhanced binding capacity of serum/HSA: serum of patients with no liver dysfunction spiked with ligand, ultrafiltration, ICP-MS of unbound ligand
[4] = biological target: T2, HSA; assay: SEB test, discovery cohort: cirrhotic patients vs patients with no liver dysfunction; assay type: binding; conditions: for sensitivity of discrimination of cirrhotic from control patients / specificity of discrimination of cirrhotic from control patients: discovery cohort, 18 cirrhotic vs 18 controls, HSA/ligand Au 1/100, Cu 1/10, dansylsarcosine 1/5, L-thyroxine 1/10
[5] = biological target: T2, HSA; conditions: literature [21]; cited from earlier work
[6] = biological target: T2, HSA; assay: Same binding test with Vialebex commercial albumin solution at 200 mg/mL; conditions: Vialebex commercial solution of pure HSA

O.O.O.[Cl][Au]([Cl])[Cl] [Au, gold(III) chloride trihydrate]
SEB test result in rat serum ([1]; as soon as D1 (ethanol for 1 day)): positive

[Cd] [Cd]
specificity (Sp) [2]: 98%
atoms bound per molecule of albumin ([3]; serum samples, 100% retention): ≤ 50 atoms per molecule of albumin
SEB test result in rat serum ([1]; group D14 (ethanol for 14 days), Cu, Cd): positive

[Cl][Cu][Cl] [Cu, copper(II) chloride]
Ratio Cu/HSA, reference value ([4]; control patients, mean): 4.3 μM/μg/L
sensitivity of discrimination of cirrhotic from control patients [4]: 100%
specificity of discrimination of cirrhotic from control patients [4]: 72%
Ratio Cu/HSA (ligand in the filtrate / albumin) ([4]; individual cirrhotic patients 1-18, one value per patient, HSA/Cu 1/10): 7.5 μM/μg/L and 4.97 μM/μg/L and 9.33 μM/μg/L and 15.85 μM/μg/L and 5.5 μM/μg/L and 10.45 μM/μg/L and 9.07 μM/μg/L and 6.86 μM/μg/L and 9.64 μM/μg/L and 7.54 μM/μg/L and 6.74 μM/μg/L and 4.76 μM/μg/L and 5.59 μM/μg/L and 8.25 μM/μg/L and 10.68 μM/μg/L and 11.02 μM/μg/L and 5.26 μM/μg/L and 5.56 μM/μg/L
Ratio Cu/HSA (ligand in the filtrate / albumin) ([4]; patient 19, NASH without cirrhosis): 5.1 μM/μg/L
atoms of Cu HSA is able to bind (reported) [5]: less than 2 atoms
specificity (Sp) [2]: 98%
ligand/HSA retention ratio [6]: 40
retention when more Cu was added ([3]; above 12 Cu atoms per albumin molecule): ≤ 40%
Cu atoms per albumin molecule retained on the ultracentrifugation filter ([3]; serum of patients with no liver dysfunction, average retention of 95%): up to 12 atoms per albumin molecule
average retention ([3]; up to 12 Cu atoms per albumin molecule): 95%

CN(C)c1cccc2c(S(=O)(=O)N(C)CC(=O)O)cccc12 [dansylsarcosine, Dansylsarcosine Piperidinium Salt]
Ratio DS/HSA, reference value ([4]; control patients, mean): 0.23 μM/μg/L
sensitivity of discrimination of cirrhotic from control patients [4]: 100%
specificity of discrimination of cirrhotic from control patients [4]: 100%
Ratio DS/HSA (ligand in the filtrate / albumin) ([4]; individual cirrhotic patients 1-18, one value per patient, HSA/dansylsarcosine 1/5, listed as DS): 4.77 μM/μg/L and 2.26 μM/μg/L and 5.71 μM/μg/L and 7.58 μM/μg/L and 0.78 μM/μg/L and 16.38 μM/μg/L
specificity (Sp) [2]: 98%
molecules bound per molecule of albumin ([3]; serum samples, 100% retention, L-thyroxine not testable above 1/10 ratio (dissolution problems)): ≤ 2.5 molecules per molecule of albu
